The values below are quoted from earlier work in patent US20090247603A1, “Stabilized pharmaceutical compositions comprising an HMG-CoA reductase inhibitor” (Orbus Pharma, Inc., priority 2005, published 2009).

The conditions of this data set: following oral administration.

As to `CC(C)c1c(C(=O)Nc2ccccc2)c(-c2ccccc2)c(-c2ccc(F)cc2)n1CC[C@@H](O)C[C@@H](O)CC(=O)[O-].CC(C)c1c(C(=O)Nc2ccccc2)c(-c2ccccc2)c(-c2ccc(F)cc2)n1CC[C@@H](O)C[C@@H](O)CC(=O)[O-].[Ca+2]` (relative stereo) [atorvastatin calcium, (R—(R*,R*))-2-(4-fluorophenyl)-[beta],[delta]-dihydroxy-5-(1-methylethyl)-3-phenyl-4((phenylamino)carbonyl)-1H-pyrole-1-heptanoic acid hemi calcium salt], the “dose recovered in urine” value was “Less than 2%”.
